Experimental data reported in patent US5508413A, “(+)-5-isopropyl 3-methyl 2-cyano-6 methyl-4-(3-nitrophenyl)-1, 4-dihydropyridine-3, 5-dicarboxylate” (priority 1991, dated 1996).
Converted amounts (≈) assume the structure as drawn.

What was measured:
Anesthetized Dogs = assay: Measurement of Arterial Blood Pressure in Anesthetized Dogs; format: in vivo, Mongrel dogs; details: for blood pressure / ratio of blood pressure change as compared to the normal blood pressure: anesthetized dogs
Method: [A] Measurement of Arterial Blood Pressure in Anesthetized Dogs
Mongrel dogs weighing 11.8 to 19.0 kg were used. The dogs were anesthetized by intraperitoneal injection of pentobarbital sodium (35 mg/kg). The blood pressure was measured with a pressure transducer in the left femoral artery. The values of blood pressure were recorded on a polygraph. The right femoral vein was cannulated and the cumulative dose (0.01, 0.032, 0.1, 0.32, 1, 3.2, 10, 32 and 100 μg/kg) of the solution of Test Compounds dissolved in a mixture of polyethylene glycol, ethanol and water was intravenously injected in a volume of 0.2 ml/kg.
The values of blood pressure were shown in the following table with an expression of mm/Hg.
note: The values of the parentheses mean the ratio of blood pressure
change (%) in each dose as compared to the normal blood pressure.

[1] = Solubility Test (in water at ambient temperature); format: physicochemical; details: for solubility: in water, ambient temperature
Method: [B] Solubility Test Test Method Solubility of Test Compound A and Nilvadipine in water was measured at ambient temperature.

[2] = background statement; cited from earlier work
[3] = orally administered; background statement; cited from earlier work
[4] = as compared to its optically inactive racemate, Nilvadipine
[5] = cumulative i.v. dose 0.32 μg/kg

| solubility (in words) [1, 4] | solubility [1] | SMILES | hypotensive and vasodilating activities (in words) (Anesthetized Dogs; [4]) | blood pressure (Anesthetized Dogs; [5]) | ratio of blood pressure change as compared to the normal blood pressure (Anesthetized Dogs; [5]) | blood pressure (Anesthetized Dogs; cumulative i.v. dose 1 μg/kg) | ratio of blood pressure change as compared to the normal blood pressure (Anesthetized Dogs; cumulative i.v. dose 1 μg/kg) | blood pressure (Anesthetized Dogs; cumulative i.v. dose 3.2 μg/kg) | ratio of blood pressure change as compared to the normal blood pressure (Anesthetized Dogs; cumulative i.v. dose 3.2 μg/kg) | blood pressure (Anesthetized Dogs; cumulative i.v. dose 10 μg/kg) | ratio of blood pressure change as compared to the normal blood pressure (Anesthetized Dogs; cumulative i.v. dose 10 μg/kg) | blood pressure (Anesthetized Dogs; cumulative i.v. dose 32 μg/kg) | ratio of blood pressure change as compared to the normal blood pressure (Anesthetized Dogs; cumulative i.v. dose 32 μg/kg) | blood pressure (Anesthetized Dogs; cumulative i.v. dose 100 μg/kg) | ratio of blood pressure change as compared to the normal blood pressure (Anesthetized Dogs; cumulative i.v. dose 100 μg/kg) | solubility in water (in words) [2] | absorbability of said drug into a body (in words) [3] |
| --- | --- | --- | --- | --- | --- | --- | --- | --- | --- | --- | --- | --- | --- | --- | --- | --- | --- |
| higher solubility |  | COC(=O)C1=C(C#N)NC(C)=C(C(=O)OC(C)C)C1c1cccc([N+](=O)[O-])c1 (single isomer, unassigned; (+)) [(+)-5-isopropyl 3-methyl 2-cyano-6-methyl-4-(3-nitrophenyl)-1,4-dihydropyridine-3,5-dicarboxylate] | much stronger and more lasting hypotensive and vasodilating activities |  |  |  |  |  |  |  |  |  |  |  |  |  |  |
|  | 0.6 µg/mL (≈ 1.56 µM) | COC(=O)C1=C(C#N)NC(C)=C(C(=O)OC(C)C)C1c1cccc([N+](=O)[O-])c1 (racemic) [Nilvadipine, (±)-5-isopropyl 3-methyl 2-cyano-6-methyl-4-(3-nitrophenyl)-1,4-dihydropyridine-3,5-dicarboxylate] |  | 104 ± 6 mm/Hg | +6 ± 1% | 103 ± 5 mm/Hg | +5 ± 1% | 100 ± 4 mm/Hg | -3 ± 2% | 90 ± 3 mm/Hg | -7 ± 5% | 83 ± 5 mm/Hg | -15 ± 6% | 65 ± 6 mm/Hg | -34 ± 6% | only slightly soluble in water | not so good |
|  | 4.7 µg/mL (≈ 12.2 µM) | COC(=O)C1=C(C#N)NC(C)=C(C(=O)OC(C)C)C1c1cccc([N+](=O)[O-])c1 (single isomer, unassigned; (+)) [Test Compound A, (+)-5-isopropyl 3-methyl 2-cyano-6-methyl-4-(3-nitrophenyl)-1,4-dihydropyridine-3,5-dicarboxylate] |  | 117 ± 6 mm/Hg | -2 ± 1% | 114 ± 6 mm/Hg | -5 ± 1% | 101 ± 7 mm/Hg | -16 ± 2% | 74 ± 6 mm/Hg | -39 ± 2% | 64 ± 7 mm/Hg | -47 ± 4% | 58 ± 6 mm/Hg | -52 ± 3% |  |  |
